Experimental data: patent US20100216779A1 (GLAXOSMITHKLINE LLC, priority 2007, published 2010)

What was measured:
Type in all cases: cell-based
[1] = tested on: NCI-H929 (multiple myeloma); assay: Inhibition of cell proliferation, CellTiter-Glo, NCI-H929; details: Homo sapiens, 72 h
In short: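 Cells were grown in medium with 10% FBS at 37° C, 5% CO2. Cell number was read as CellTiter-Glo luminescence (cellular ATP), with untreated wells as control.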

COLO205 (colon) = assay: Inhibition of cell proliferation, CellTiter-Glo, COLO205; details: Homo sapiens, COLO 205, 72 h
In short: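 Exponentially growing COLO205 cells in medium with 10% FBS were plated below 2000 cells/well at 37 °C, 5% CO2. Untreated wells served as controls.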

[2] = molecular target: T1, IR (NIH-3T3 cells over expressing human IGF-1R or IR) (Homo sapiens, UniProt P06213); assay: IR cellular autophosphorylation (DELFIA); details: NIH-3T3 cells over expressing IR, insulin stimulated
T1 construct: expressed in transfected cells; host or cells: NIH-3T3 (mouse fibroblasts)
T1 sequence (P06213 28-1382): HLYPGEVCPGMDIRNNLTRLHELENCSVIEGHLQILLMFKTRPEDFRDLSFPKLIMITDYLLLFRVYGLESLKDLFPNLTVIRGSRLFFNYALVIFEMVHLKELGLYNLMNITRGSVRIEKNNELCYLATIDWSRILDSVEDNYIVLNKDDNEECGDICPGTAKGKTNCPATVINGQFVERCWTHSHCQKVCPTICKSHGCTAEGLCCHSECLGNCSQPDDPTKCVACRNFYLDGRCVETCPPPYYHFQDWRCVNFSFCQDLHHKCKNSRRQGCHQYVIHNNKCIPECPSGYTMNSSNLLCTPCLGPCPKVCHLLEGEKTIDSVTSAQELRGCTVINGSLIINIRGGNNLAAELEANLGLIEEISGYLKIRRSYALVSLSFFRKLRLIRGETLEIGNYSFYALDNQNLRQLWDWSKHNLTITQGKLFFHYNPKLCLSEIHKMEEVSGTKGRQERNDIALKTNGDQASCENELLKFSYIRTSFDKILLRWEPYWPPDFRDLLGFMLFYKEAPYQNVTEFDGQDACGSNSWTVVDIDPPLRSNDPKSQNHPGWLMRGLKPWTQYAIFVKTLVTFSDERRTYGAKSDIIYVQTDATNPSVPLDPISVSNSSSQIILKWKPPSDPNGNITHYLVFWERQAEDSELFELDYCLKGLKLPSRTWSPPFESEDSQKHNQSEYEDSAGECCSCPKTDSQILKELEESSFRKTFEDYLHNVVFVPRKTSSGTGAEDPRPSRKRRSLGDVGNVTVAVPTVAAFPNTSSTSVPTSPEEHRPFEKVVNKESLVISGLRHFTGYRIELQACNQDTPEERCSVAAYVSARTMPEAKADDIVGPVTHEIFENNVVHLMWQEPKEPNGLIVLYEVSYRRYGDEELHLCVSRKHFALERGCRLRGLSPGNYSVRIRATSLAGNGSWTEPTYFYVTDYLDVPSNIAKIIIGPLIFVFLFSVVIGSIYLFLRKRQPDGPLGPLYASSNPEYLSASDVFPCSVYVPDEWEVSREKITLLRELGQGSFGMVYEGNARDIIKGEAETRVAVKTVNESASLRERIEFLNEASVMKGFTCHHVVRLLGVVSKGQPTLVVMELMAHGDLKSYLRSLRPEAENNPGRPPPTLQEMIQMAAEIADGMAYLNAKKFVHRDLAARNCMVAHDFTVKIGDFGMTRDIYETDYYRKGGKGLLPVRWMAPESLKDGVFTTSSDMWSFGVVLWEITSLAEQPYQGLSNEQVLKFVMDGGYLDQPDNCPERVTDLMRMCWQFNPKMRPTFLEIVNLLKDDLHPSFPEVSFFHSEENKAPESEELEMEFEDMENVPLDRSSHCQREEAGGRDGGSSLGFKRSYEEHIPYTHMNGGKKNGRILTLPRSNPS
In short: (§1)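 Readout: DELFIA on lysates, with anti-IGF-1R or anti-IR capture and europium anti-pTyr detection, expressed relative to 100% ligand-stimulated signal. Human IGF-1R- or IR-overexpressing NIH-3T3 cells got compound (1.5 nM–30 uM) for 2 h before 15 min IGF-1 (30 ng/mL) or insulin (3 ug/mL).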

[3] = molecular target: T2, human IGF-1R (NIH-3T3 cells over expressing human IGF-1R) (Homo sapiens, UniProt P08069); assay: IGF-1R cellular autophosphorylation (DELFIA); details: IGF-1 stimulated
T2 construct: expressed in transfected cells; host or cells: NIH-3T3 (mouse fibroblasts)
T2 sequence (P08069 31-1367): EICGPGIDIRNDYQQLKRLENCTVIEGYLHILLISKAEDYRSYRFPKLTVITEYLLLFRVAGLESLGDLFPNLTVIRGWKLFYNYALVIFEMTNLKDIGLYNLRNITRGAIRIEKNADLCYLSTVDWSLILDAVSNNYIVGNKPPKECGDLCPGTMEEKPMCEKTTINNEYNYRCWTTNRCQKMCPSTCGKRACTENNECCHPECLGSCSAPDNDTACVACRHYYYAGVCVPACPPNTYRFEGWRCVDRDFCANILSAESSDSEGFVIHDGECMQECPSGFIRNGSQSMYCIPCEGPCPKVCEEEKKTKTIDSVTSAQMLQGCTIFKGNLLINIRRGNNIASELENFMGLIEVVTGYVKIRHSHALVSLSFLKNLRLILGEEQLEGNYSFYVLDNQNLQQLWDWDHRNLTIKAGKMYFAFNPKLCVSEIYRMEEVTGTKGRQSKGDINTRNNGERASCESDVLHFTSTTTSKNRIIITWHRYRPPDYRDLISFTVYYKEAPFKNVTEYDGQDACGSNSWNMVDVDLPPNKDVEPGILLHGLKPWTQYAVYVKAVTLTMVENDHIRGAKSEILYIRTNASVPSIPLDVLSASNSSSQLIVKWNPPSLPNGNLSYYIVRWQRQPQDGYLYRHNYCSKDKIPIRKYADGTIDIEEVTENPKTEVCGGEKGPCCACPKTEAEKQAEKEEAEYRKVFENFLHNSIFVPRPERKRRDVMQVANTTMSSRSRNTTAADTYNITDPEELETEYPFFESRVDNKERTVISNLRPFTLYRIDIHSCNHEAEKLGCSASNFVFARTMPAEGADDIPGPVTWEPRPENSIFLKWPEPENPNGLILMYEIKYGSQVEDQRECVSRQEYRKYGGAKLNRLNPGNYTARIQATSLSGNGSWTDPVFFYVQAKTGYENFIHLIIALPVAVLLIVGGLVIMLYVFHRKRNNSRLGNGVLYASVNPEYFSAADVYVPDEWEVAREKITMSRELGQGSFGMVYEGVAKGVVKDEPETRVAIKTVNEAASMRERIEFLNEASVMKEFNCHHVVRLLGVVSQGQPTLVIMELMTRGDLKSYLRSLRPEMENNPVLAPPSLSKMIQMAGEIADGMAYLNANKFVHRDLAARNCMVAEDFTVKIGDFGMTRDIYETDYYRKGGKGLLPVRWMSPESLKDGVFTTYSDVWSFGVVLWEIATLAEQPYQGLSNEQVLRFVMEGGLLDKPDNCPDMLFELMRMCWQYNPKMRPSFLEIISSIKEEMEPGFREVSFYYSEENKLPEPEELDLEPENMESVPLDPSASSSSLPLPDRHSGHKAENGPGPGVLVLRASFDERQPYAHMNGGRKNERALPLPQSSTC
In short: as §1

Compound | IC50 [1] [nM] | IC50 (COLO205 (colon)) [nM] | IC50 [2] [nM] | IC50 [3] [nM]
COc1cc(N2CCC(N3CCN(CCS(C)(=O)=O)CC3)CC2)c(Cl)cc1Nc1nccc(-c2c(-c3cccc(C(=O)Nc4c(F)cccc4F)c3)nc3ccccn23)n1 [Example 114, 3-[3-(2-{[5-chloro-2-(methyloxy)-4-(4-{4-[2-(methylsulfonyl)ethyl]-1-piperazinyl}-1-piperidinyl)phenyl]amino}-4-pyrimidinyl)imidazo[1,2-a]pyridin-2-yl]-N-(2,6-difluorophenyl)-benzamide] | < 250 | 250 to 1000 | < 100 | < 100
CCOc1cc(N2CCC(N3CCN(CCF)CC3)CC2)ccc1Nc1nccc(-c2c(-c3cccc(C(=O)Nc4c(F)cccc4F)c3)nc3ccccn23)n1 [Example 116, N-(2,6-difluorophenyl)-3-(3-{2-[(2-(ethyloxy)-4-{4-[4-(2-fluoroethyl)-1-piperazinyl]-1-piperidinyl}phenyl)amino]-4-pyrimidinyl}imidazo[1,2-a]pyridin-2-yl)benzamide] | 250 to 1000 | 250 to 1000 | < 100 | < 100
CCOc1cc(N2CCC(N3CCN(CC(F)F)CC3)CC2)ccc1Nc1nccc(-c2c(-c3cccc(C(=O)Nc4c(F)cccc4F)c3)nc3ccccn23)n1 [Example 117, 3-[3-(2-{[4-{4-[4-(2,2-difluoroethyl)-1-piperazinyl]-1-piperidinyl}-2-(ethyloxy)phenyl]-amino}-4-pyrimidinyl)imidazo[1,2-a]pyridin-2-yl]-N-(2,6-difluorophenyl)benzamide] | 250 to 1000 | > 1000 | < 100 | < 100
CCOc1cc(N2CCC(N3CCN(CCC(F)(F)F)CC3)CC2)ccc1Nc1nccc(-c2c(-c3cccc(C(=O)Nc4c(F)cccc4F)c3)nc3ccccn23)n1 [Example 118, N-(2,6-difluorophenyl)-3-(3-{2-[(2-(ethyloxy)-4-{4-[4-(3,3,3-trifluoropropyl)-1-piperazinyl]-1-piperidinyl}phenyl)amino]-4-pyrimidinyl}imidazo[1,2-a]pyridin-2-yl)benzamide] | 250 to 1000 | 250 to 1000 | 100 to 500 | 100 to 500
CCOc1cc(N2CCC(N3CCN(CCS(C)(=O)=O)CC3)CC2)ccc1Nc1nccc(-c2c(-c3cccc(C(=O)Nc4c(F)cccc4F)c3)nc3ccccn23)n1 [Example 119, N-(2,6-difluorophenyl)-3-[3-(2-{[2-(ethyloxy)-4-(4-{4-[2-(methylsulfonyl)ethyl]-1-piperazin-yl]-1-piperidinyl)phenyl]amino}-4-pyrimidinyl)imidazo[1,2-a]pyridin-2-yl]benzamide] | < 250 | 250 to 1000 | < 100 | < 100
CS(=O)(=O)CCN1CCN(C2CCN(c3ccc(Nc4nccc(-c5c(-c6cccc(C(=O)Nc7c(F)cccc7F)c6)nc6ccccn56)n4)c(OCC(F)(F)F)c3)CC2)CC1 [Example 120, N-(2,6-difluorophenyl)-3-{3-[2-({4-(4-{4-[2-(methylsulfonyl)ethyl]-1-piperazinyl}-1-piperidinyl)-2-[(2,2,2-trifluoroethyl)oxy]phenyl}amino)-4-pyrimidinyl]imidazo[1,2-a]pyridin-2-yl}benzamide] | < 250 | 250 to 1000 | < 100 | < 100
COc1cc(N2CCC(N3CCN(CCF)C(=O)C3)CC2)ccc1Nc1nccc(-c2c(-c3cccc(C(=O)Nc4c(F)cccc4F)c3)nc3ccccn23)n1 [Example 121, N-(2,6-difluorophenyl)-3-[3-(2-{[4-{4-[4-(2-fluoroethyl)-3-oxo-1-piperazinyl]-1-piperidinyl}-2-(methyloxy)phenyl]amino]-4-pyrimidinyl)imidazo[1,2-a]pyridin-2-yl]benzamide] | < 250 | 250 to 1000 | < 100 | < 100
COc1cc(N2CCN3CCOC[C@@H]3C2)ccc1Nc1nccc(-c2c(-c3cccc(C(=O)Nc4c(F)cccc4F)c3)nc3ccccn23)n1 [Example 123] | 250 to 1000 | 250 to 1000 | < 100 | 100 to 500
